Results taken from patent US20020160066A1, “Composition and methods containing an antimicrobial essential oil extracted from Coleus forskohlii” (priority 2001, published 2002).

How the values were obtained:
Staphylococcus aureus = experiment: Second study, disk clearance zone, Staphylococcus aureus; assay type: cell-based; settings: 30 μg/disk
Description: Determination of the antimicrobial activity of the composition. The sensitivity of Propionbacterium acnes a microorganism associated with acne and other skin infections (Nishijima, et al. (2000)), Staphylococcus aureus a bacterial strain found in infected wounds and skin eruptions including acne (Nishijima, et al. 1994)), Staphylococcus epidermidis a bacterial strain occurring in a variety of opportunistic bacterial skin infections and in acne (Nishijima, S. et al. (2000)) and Streptococcus mutans, a bacterial strain associated with the progression of dental caries (Sanchez-Perez, L. et al. (2001)), Candida albican, and Streptococcus epidermidis; to Coleus forskohlii oil using disk diffusion methodology was determined. One strain each of Propionbacterium acnes (ATCC 11827), Staphylococcus aureus (ATCC 29213), Streptococcus mutans (ATCC 25175), and Staphylococcus epidermidis (ATCC 14990) Candida albicans (ATCC 11006) and Streptococcus epidermidis (ATCC 14990) were obtained from ATCC. Propionbacterium acnes culture were grown in Reinforced Clostridia media under anaerobic conditions at 37° C. for 24 hours. Staphylococcus aureus, Streptococcus mutans and Staphylococcus epidermidis cultures were cultured in Trypticase Soy Broth under aerobic conditions at 37° C. for 24 hours. […] Inhibition zones were measured to the closest one tenth of one millimeter using a caliper. […]

E. coli = experiment: Second study, disk clearance zone, E. coli; assay type: cell-based; settings: Escherichia coli; 30 μg/disk

O=C(N[C@H](CO)[C@H](O)c1ccc([N+](=O)[O-])cc1)C(Cl)Cl [Chloramphenicol]
zone of inhibition at 30 µg/disc (Staphylococcus aureus): 20 mm
zone of inhibition at 30 µg/disc (E. coli): 34 mm
